The target of test [1] is Muscarinic acetylcholine receptor M3 (Homo sapiens, UniProt P20309).
The target in test [2] is T1, 5-hydroxytryptamine receptor 2B (Homo sapiens, UniProt P41595). The format is functional, cell-based.
Test [3] concerns the target Growth hormone secretagogue receptor type 1 (Homo sapiens, UniProt Q92847).
Test [4] concerns the target Neuronal acetylcholine receptor subunit alpha-4 (Homo sapiens, UniProt P43681).
Test [5] deals with T1, 5-hydroxytryptamine receptor 2B. The format is functional, cell-based. This is another data set of the same source.
Test [6] deals with T2, Muscarinic acetylcholine receptor M1 (Homo sapiens, UniProt P11229).
T2 sequence (P11229 whole entry): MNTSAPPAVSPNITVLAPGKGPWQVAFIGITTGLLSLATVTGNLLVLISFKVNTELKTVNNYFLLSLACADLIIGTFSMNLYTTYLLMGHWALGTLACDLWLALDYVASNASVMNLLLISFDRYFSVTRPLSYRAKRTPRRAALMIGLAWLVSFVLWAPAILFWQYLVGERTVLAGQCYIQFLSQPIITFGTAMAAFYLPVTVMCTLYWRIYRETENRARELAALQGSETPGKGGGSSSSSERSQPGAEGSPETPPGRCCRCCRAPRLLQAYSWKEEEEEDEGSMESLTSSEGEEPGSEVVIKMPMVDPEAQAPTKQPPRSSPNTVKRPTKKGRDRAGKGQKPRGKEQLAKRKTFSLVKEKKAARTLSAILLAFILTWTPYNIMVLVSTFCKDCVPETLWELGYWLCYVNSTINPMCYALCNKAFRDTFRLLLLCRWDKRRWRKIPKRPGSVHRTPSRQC
Type of test: functional.

The target of test [7] is cGMP-inhibited 3',5'-cyclic phosphodiesterase 3A (Homo sapiens, UniProt Q14432). Type of test: functional.
The target of the next test is T3, Adenosine receptor A3 (Homo sapiens, UniProt P0DMS8).
T3 sequence (P0DMS8 whole entry): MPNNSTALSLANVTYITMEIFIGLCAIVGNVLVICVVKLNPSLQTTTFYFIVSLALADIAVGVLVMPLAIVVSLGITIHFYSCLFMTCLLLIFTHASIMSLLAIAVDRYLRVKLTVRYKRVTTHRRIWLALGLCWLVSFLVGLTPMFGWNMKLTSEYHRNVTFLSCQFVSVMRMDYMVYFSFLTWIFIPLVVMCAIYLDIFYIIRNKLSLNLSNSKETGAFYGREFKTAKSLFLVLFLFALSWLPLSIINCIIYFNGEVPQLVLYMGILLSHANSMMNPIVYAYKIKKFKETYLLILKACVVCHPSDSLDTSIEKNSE

The target of test [8] is 5-hydroxytryptamine receptor 2A (Homo sapiens, UniProt P28223). The format is functional, cell-based.
Another test deals with T4, B2 bradykinin receptor (Homo sapiens, UniProt P30411).
T4 sequence (P30411 whole entry): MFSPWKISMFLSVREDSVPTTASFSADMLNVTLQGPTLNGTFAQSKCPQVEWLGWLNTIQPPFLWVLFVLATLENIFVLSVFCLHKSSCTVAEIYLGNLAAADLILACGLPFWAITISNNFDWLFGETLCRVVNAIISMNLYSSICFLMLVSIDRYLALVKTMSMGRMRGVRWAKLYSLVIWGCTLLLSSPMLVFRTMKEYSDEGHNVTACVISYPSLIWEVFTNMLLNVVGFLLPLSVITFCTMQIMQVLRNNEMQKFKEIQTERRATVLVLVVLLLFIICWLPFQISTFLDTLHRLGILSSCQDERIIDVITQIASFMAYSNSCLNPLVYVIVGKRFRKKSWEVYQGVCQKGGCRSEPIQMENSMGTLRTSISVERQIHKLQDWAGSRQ

Test [9] deals with Beta-2 adrenergic receptor (Homo sapiens, UniProt P07550).
For test [10], the target named is T5, Muscarinic acetylcholine receptor M2 (Homo sapiens, UniProt P08172).
T5 sequence (P08172 whole entry): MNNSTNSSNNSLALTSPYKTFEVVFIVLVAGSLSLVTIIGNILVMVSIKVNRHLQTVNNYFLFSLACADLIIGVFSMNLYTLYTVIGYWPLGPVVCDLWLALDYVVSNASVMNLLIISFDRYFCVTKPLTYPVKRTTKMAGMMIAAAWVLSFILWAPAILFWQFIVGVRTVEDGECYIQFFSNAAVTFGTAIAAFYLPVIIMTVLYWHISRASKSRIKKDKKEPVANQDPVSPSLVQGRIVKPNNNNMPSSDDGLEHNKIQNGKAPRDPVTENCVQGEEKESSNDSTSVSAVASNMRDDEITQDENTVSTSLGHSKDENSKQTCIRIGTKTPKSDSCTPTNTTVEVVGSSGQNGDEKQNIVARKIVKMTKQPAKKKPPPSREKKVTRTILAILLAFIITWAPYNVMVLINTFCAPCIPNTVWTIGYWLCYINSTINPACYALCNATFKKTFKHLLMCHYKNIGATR
Type of test: functional, cell-based.

In another test the target is T6, Endothelin-1 receptor (Homo sapiens, UniProt P25101).
T6 sequence (P25101 whole entry): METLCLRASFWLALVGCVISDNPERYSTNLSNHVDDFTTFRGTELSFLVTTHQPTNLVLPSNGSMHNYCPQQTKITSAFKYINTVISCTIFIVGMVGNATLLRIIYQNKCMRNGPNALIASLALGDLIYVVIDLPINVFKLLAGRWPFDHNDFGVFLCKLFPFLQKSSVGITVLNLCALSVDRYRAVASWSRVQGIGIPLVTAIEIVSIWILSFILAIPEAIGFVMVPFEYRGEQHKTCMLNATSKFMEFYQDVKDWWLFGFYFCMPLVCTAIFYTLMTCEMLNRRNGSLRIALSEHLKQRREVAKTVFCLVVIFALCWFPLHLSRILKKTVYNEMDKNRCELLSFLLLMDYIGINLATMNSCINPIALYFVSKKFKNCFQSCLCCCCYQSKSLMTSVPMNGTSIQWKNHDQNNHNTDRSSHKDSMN

The structures appear in SMILES notation.
Also: assay procedure not described here.

Sequence of cGMP-inhibited 3',5'-cyclic phosphodiesterase 3A (Q14432 whole entry): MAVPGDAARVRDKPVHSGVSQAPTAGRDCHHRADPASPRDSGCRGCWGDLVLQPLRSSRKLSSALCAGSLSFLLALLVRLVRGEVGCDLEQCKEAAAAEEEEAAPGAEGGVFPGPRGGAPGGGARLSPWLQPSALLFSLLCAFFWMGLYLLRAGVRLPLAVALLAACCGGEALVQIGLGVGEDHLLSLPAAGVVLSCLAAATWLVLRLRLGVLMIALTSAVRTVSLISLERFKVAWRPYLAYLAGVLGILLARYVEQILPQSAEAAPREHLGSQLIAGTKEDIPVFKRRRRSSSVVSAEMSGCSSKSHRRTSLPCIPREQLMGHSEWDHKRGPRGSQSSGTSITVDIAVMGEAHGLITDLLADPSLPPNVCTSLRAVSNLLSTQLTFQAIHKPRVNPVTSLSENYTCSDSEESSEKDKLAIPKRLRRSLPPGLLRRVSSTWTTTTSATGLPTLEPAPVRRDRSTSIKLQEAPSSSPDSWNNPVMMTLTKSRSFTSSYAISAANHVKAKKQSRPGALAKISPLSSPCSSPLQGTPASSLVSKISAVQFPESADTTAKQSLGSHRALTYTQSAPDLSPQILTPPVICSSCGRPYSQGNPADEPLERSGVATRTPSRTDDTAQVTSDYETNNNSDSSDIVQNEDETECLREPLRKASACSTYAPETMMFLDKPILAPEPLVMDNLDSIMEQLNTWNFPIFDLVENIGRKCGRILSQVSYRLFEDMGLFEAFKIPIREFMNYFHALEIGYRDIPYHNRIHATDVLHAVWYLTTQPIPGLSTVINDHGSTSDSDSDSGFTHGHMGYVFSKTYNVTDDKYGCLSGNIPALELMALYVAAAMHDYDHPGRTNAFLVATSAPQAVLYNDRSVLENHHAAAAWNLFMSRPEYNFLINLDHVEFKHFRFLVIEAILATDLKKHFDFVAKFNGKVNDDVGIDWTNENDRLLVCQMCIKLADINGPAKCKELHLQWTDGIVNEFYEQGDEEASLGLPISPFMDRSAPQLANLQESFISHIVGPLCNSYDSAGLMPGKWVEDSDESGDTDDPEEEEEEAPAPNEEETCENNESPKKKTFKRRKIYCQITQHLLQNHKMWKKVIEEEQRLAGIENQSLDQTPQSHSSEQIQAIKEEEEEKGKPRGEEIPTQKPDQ
Sequence of Muscarinic acetylcholine receptor M3 (P20309 whole entry): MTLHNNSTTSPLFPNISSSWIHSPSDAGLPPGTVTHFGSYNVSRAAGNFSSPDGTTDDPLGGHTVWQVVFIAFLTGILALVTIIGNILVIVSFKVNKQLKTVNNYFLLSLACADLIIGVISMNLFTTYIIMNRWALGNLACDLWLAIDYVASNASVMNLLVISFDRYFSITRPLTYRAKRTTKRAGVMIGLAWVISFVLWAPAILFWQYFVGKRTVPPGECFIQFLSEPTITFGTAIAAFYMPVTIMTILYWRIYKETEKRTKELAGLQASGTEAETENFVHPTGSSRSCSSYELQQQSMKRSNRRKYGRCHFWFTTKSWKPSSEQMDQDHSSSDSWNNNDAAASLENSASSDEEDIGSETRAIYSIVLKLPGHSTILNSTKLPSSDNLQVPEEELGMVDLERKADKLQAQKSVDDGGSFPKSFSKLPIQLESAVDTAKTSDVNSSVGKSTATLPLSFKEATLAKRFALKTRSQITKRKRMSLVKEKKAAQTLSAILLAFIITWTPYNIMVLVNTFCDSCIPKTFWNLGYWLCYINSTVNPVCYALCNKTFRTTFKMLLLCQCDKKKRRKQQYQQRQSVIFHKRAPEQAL
Sequence of 5-hydroxytryptamine receptor 2A (P28223 whole entry): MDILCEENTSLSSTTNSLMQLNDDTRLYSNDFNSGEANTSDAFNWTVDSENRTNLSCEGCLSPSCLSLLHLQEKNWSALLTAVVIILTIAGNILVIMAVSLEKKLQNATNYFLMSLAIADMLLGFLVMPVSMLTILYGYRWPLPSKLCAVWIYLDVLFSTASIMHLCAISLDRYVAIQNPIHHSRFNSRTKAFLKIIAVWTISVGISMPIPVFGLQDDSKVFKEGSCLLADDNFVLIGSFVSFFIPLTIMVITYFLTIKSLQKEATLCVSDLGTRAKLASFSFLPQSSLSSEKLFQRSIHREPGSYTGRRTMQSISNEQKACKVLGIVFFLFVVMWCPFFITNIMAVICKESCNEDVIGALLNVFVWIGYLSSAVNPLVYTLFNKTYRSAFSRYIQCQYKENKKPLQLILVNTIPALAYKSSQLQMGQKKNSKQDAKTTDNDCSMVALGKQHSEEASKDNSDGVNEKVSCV
Sequence of Beta-2 adrenergic receptor (P07550 whole entry): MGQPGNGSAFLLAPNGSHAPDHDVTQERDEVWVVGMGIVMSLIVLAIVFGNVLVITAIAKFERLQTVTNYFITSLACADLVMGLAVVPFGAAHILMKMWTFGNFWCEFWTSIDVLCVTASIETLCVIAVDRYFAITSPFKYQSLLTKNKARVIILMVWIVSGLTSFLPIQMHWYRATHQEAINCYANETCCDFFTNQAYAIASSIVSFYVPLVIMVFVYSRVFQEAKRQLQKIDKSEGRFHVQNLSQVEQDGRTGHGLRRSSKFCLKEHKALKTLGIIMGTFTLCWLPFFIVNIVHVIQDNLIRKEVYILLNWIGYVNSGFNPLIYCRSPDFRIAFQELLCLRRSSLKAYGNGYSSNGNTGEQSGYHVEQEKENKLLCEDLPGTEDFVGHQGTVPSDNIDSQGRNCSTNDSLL
Sequence of Growth hormone secretagogue receptor type 1 (Q92847 whole entry): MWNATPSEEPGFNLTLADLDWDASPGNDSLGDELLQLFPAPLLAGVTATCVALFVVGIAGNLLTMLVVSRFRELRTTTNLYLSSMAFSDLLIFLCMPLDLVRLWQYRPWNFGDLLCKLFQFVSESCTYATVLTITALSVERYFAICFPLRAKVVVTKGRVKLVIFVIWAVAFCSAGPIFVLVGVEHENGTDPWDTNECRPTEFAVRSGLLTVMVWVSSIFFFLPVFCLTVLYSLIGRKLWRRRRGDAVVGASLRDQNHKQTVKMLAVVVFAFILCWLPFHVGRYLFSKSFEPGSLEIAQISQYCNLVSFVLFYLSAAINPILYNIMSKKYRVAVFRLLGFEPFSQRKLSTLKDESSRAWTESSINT
T1 sequence (P41595 whole entry): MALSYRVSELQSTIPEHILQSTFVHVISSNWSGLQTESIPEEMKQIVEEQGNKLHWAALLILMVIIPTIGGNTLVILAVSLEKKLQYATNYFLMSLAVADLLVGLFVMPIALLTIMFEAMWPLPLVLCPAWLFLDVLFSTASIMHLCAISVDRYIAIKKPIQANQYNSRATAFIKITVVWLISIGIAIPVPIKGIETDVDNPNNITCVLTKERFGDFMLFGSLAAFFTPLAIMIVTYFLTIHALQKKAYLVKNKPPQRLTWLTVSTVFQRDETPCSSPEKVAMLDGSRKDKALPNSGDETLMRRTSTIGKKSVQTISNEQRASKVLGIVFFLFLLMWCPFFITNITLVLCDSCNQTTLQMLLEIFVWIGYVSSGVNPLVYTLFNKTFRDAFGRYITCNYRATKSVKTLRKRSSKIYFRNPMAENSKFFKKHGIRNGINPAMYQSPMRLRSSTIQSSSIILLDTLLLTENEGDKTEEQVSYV
Sequence of Neuronal acetylcholine receptor subunit alpha-4 (P43681 whole entry): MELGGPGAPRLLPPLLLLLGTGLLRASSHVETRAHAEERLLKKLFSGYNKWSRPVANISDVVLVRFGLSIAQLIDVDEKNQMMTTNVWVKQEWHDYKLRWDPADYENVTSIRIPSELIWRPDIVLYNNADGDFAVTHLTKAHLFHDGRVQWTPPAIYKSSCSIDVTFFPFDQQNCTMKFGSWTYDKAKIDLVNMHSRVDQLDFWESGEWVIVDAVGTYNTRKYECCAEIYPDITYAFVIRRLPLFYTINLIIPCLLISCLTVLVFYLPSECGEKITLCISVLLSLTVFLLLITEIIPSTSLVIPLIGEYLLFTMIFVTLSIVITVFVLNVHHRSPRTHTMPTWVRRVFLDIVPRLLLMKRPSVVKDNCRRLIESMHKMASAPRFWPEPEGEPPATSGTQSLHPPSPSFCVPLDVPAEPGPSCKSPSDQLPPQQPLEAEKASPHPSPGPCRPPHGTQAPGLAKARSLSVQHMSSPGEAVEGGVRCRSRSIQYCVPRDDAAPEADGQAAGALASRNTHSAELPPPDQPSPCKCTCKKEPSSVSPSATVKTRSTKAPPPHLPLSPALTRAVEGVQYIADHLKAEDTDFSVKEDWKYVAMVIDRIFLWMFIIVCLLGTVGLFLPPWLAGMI

For orientation: AC50 means the concentration at which the activity in the assay is half-maximal. In the case of `OCC(O)COc1ccc(Cl)cc1` (stereo not given), the AC50 in [1] was greater than 30 µM; in [2], greater than 10 µM; in test [3], greater than 10 µM; in test [4] it was greater than 10 µM; in [5], greater than 10 µM; in [6] it was greater than 10 µM. The AC50 in test [7] was greater than 30 µM; at Adenosine receptor A3, greater than 10 µM; in test [8] it was greater than 10 µM; on B2 bradykinin receptor it was greater than 10 µM; in test [9], greater than 10 µM; in [10], greater than 10 µM.

With `O=C(O[C@H]1C[N+]2(CCCOc3ccccc3)CCC1CC2)C(O)(c1cccs1)c1cccs1` [ACLIDINIUM BROMIDE], the AC50 was greater than 30 µM on Endothelin-1 receptor; greater than 30 µM in test [3]; greater than 10 µM in [4]; 0.018 µM in [6]; greater than 30 µM in [7]; greater than 30 µM on Adenosine receptor A3. The AC50 on B2 bradykinin receptor is greater than 30 µM; in test [9], greater than 10 µM.

Turning to `C[C@@H](Cc1ccccc1)N(C)Cc1ccccc1` [BENZPHETAMINE], the AC50 in [1] was greater than 30 µM; in test [2], greater than 10 µM; in test [3], greater than 10 µM; in test [4], greater than 10 µM; in test [5], greater than 10 µM; in test [6], greater than 10 µM. Moreover, the AC50 in test [7] is greater than 30 µM; on Adenosine receptor A3, greater than 10 µM; in test [8] it was greater than 10 µM; at B2 bradykinin receptor, greater than 10 µM; in [9], greater than 10 µM; in test [10], greater than 10 µM.

Consider `CCCCOC(=O)c1ccc(N)cc1` [BUTAMBEN], for which the concentration at half-maximal activity (AC50) (at Endothelin-1 receptor; in [2]; in test [3]; in test [4]; in [5]; in [7]) was greater than 30 µM throughout. The half-maximal activity concentration (AC50) (on Adenosine receptor A3; on B2 bradykinin receptor; in test [9]; in test [10]) was greater than 30 µM each time.

On to `CC(=O)OCC1=C(C(=O)O)N2C(=O)[C@@H](NC(=O)CSc3ccncc3)[C@H]2SC1` [CEPHAPIRIN], for which the AC50 is greater than 30 µM in test [1]; greater than 10 µM in test [2]; greater than 10 µM in [3]; greater than 10 µM in test [4]; greater than 10 µM in test [5]; greater than 10 µM in test [6]. Besides, the AC50 was greater than 30 µM in test [7]; greater than 10 µM at Adenosine receptor A3; greater than 10 µM in [8]; greater than 10 µM on B2 bradykinin receptor; greater than 10 µM in [9]; greater than 10 µM in [10].

Take `Nc1nc(Cl)nc2c1ncn2[C@@H]1O[C@H](CO)[C@@H](O)[C@@H]1F` [CLOFARABINE]: the AC50 in test [1], in [2], in test [3], in test [4], in test [5] and in test [6] was greater than 30 µM in each case. Moreover, the AC50 is 6.4 µM in test [7]; 18.2 µM on Adenosine receptor A3; greater than 30 µM in test [8]; greater than 30 µM on B2 bradykinin receptor; greater than 30 µM in test [9]; greater than 10 µM in test [10].

Take `O=C1CN=C(c2ccccc2Cl)c2cc([N+](=O)[O-])ccc2N1` [CLONAZEPAM]: the concentration at half-maximal activity (AC50) at Endothelin-1 receptor is greater than 30 µM; in test [2], greater than 10 µM; in test [3] it was greater than 30 µM; in test [4], greater than 10 µM; in test [5], greater than 10 µM; in test [7], greater than 30 µM. For the same compound, the concentration at half-maximal activity (AC50) was greater than 30 µM at Adenosine receptor A3, greater than 30 µM on B2 bradykinin receptor, greater than 10 µM in test [9] and greater than 10 µM in [10].

Regarding `CCN(CC)C(C)C(=O)c1ccccc1` (stereo not given) [DIETHYLPROPION], the AC50 was greater than 30 µM on Endothelin-1 receptor; greater than 30 µM in test [1]; greater than 10 µM in test [2]; greater than 30 µM in [3]; greater than 10 µM in test [4]; greater than 10 µM in test [5]. In addition, the half-maximal activity concentration (AC50) in [6] was greater than 10 µM; in [7] it was greater than 30 µM; on Adenosine receptor A3 it was greater than 30 µM; at B2 bradykinin receptor it was greater than 30 µM; in [9], greater than 10 µM; in test [10], greater than 10 µM.

As to `CCc1ccc(C(=O)C(C)CN2CCCCC2)cc1` (stereo not given) [EPERISONE], the AC50 (on Endothelin-1 receptor; in [2]; in test [3]; in [4]; in test [5]; in [7]) was greater than 30 µM throughout. Besides, the AC50 (at Adenosine receptor A3; on B2 bradykinin receptor; in test [9]; in test [10]) was greater than 30 µM each time.

As to `CCOC(=O)C1=C(C)NC(C)=C(C(=O)OC)C1c1cccc(Cl)c1Cl` (stereo not given) [FELODIPINE], the AC50 at Endothelin-1 receptor was greater than 30 µM; in [2], greater than 10 µM; in test [3] it was greater than 30 µM; in test [4], greater than 10 µM; in [5], greater than 10 µM; in test [7], greater than 30 µM. For the same compound, the AC50 is 7.91 µM on Adenosine receptor A3, greater than 30 µM on B2 bradykinin receptor, greater than 10 µM in [9] and greater than 10 µM in [10].

As to `CC(=O)OCC(=O)[C@@]1(O)CC[C@H]2[C@@H]3CCC4=CC(=O)CC[C@]4(C)[C@@]3(F)[C@@H](O)C[C@@]21C` [FLUDROCORTISONE ACETATE], the AC50 (at Endothelin-1 receptor; in test [2]; in [3]; in [4]; in test [5]; in [7]) was greater than 30 µM each time. The concentration at half-maximal activity (AC50) (on Adenosine receptor A3; on B2 bradykinin receptor; in test [9]; in test [10]) was greater than 30 µM in each case.

As to `CN1C(=O)CN=C(c2ccccc2F)c2cc([N+](=O)[O-])ccc21` [FLUNITRAZEPAM], the AC50 on Endothelin-1 receptor is greater than 30 µM; in test [1], greater than 30 µM; in test [2], greater than 10 µM; in test [3], 29.1 µM; in test [4] it was greater than 10 µM; in test [5] it was greater than 10 µM. For the same compound, the concentration at half-maximal activity (AC50) was greater than 10 µM in test [6]; greater than 30 µM in test [7]; greater than 30 µM on Adenosine receptor A3; greater than 30 µM at B2 bradykinin receptor; greater than 10 µM in test [9]; greater than 10 µM in [10].
